A word on the IC50: it is the point on the concentration scale where inhibition reaches its midpoint.

This passage reports selectivity ratio, IC50 and log K results from ChEMBL document CHEMBL4819108, “A trio of quinoline-isoniazid-phthalimide with promising antiplasmodial potential: Synthesis, in-vitro evaluation and heme-polymerization inhibition studies” (Bioorg Med Chem, 2021).

A short description of series [1]: Selectivity index, ratio of IC50 for African green monkey Vero cells to IC50 for antiplasmodial activity against CQ-resistant Plasmodium falciparum W2. Format: toxicity. Particulars: read-out: Ratio IC50.
Series [2] has as its system Plasmodium falciparum. The series can be described thus: Antiplasmodial activity against CQ-resistant Plasmodium falciparum W2. Format: functional, organism-based.
The subject of the next series is Vero. Nature of the series: Cytotoxicity against African green monkey Vero cells. Format: cell-based. Conditions: Chlorocebus sabaeus.
Series [3] relates to Plasmodium falciparum. Nature of the series: Antimalarial activity against Plasmodium falciparum 7G8. The format is functional, organism-based.
Series [4] deals with Plasmodium falciparum. Nature of the series: Antimalarial activity against Plasmodium falciparum RKL9 infected in human RBC assessed as reduction in parasite growth incubated for 24 hrs by giemsa staining based assay. Format: functional, organism-based. Particulars: RKL9, Erythrocyte.
In series [5] the test system is Heme. Nature of the series: Binding affinity to monomeric heme in MES buffer at pH 5.6.
Series [6] deals with Heme. Nature of the series: Binding affinity to monomeric heme in HEPES buffer at pH 7.4.

As for `O=C(O)c1ccc2c(c1)C(=O)N(CCCCNc1ccnc3cc(Cl)ccc13)C2=O`, the selectivity ratio in series [1] came to 789. Also, the IC50 with Plasmodium falciparum [2] turned out to be 50.8 nM.

On to `O=C(NNC(=O)c1ccc2c(c1)C(=O)N(CCCCNc1ccnc3cc(Cl)ccc13)C2=O)c1ccncc1`, for which the selectivity ratio in series [1] worked out at 627. Besides, in the series on Plasmodium falciparum [2], the IC50 is 26.3 nM.

`O=C(NCCNc1ccnc2cc(Cl)ccc12)c1ccc2c(c1)C(=O)N(NC(=O)c1ccncc1)C2=O`: the selectivity ratio in series [1] was 144. The compound further returned an IC50 with Plasmodium falciparum [2] of 445 nM.

With `O=C(NCCCCNc1ccnc2cc(Cl)ccc12)c1ccc2c(c1)C(=O)N(NC(=O)c1ccncc1)C2=O`, the selectivity ratio in series [1] worked out at 58.1. This compound also gave an IC50 with Plasmodium falciparum [2] of 253 nM.

With `O=C(NN1C(=O)c2ccc(C(=O)OCCCNc3ccnc4cc(Cl)ccc34)cc2C1=O)c1ccncc1`, the values for the IC50 in the series on Vero and in the series on Plasmodium falciparum [2] were over 189000 nM and 3770 nM, respectively. Also, the selectivity ratio in series [1] is 50.

Regarding `O=C(N/N=C/c1c(O)ccc2ccccc12)c1ccncc1`, in the series on Plasmodium falciparum [3], the IC50 was 42.2 nM.

Consider `O=C(N/N=C/c1ccc(O)cc1)c1ccncc1`, for which the IC50 in the series with Plasmodium falciparum [4] is 42.2 nM.

In the case of `O=C(NNC(=O)c1ccc2c(c1)C(=O)N(CCCCCCNc1ccnc3cc(Cl)ccc13)C2=O)c1ccncc1`, the selectivity ratio in series [1] turned out to be 12.7. In the series on Plasmodium falciparum [2], this compound showed an IC50 of over 10000 nM.

As to `O=C(NNC(=O)c1ccc2c(c1)C(=O)N(CCCCCCCCNc1ccnc3cc(Cl)ccc13)C2=O)c1ccncc1`, the selectivity ratio in series [1] turned out to be 2970. In the series on Plasmodium falciparum [2], this compound yielded a half-inhibitory concentration (IC50) of 43.3 nM.

Regarding `O=C(O)c1ccc2c(c1)C(=O)N(CCCCCCNc1ccnc3cc(Cl)ccc13)C2=O`, the selectivity ratio in series [1] was found to be 805. In the series with Plasmodium falciparum [2], this compound showed a 50% inhibitory concentration (IC50) of 30.2 nM.

For `O=C(NCCCCCCCCNc1ccnc2cc(Cl)ccc12)c1ccc2c(c1)C(=O)N(NC(=O)c1ccncc1)C2=O`, the 50% inhibitory concentration (IC50) in the series with Vero is over 167000 nM; with Plasmodium falciparum [2], 93.5 nM. Also, the selectivity ratio in series [1] turned out to be 1790.

With `O=C(N/N=C/C=C/c1ccccc1)c1ccncc1`, the IC50 in the series on Plasmodium falciparum [4] was 66 nM.

Regarding `O=C(O)c1ccc2c(c1)C(=O)N(CCNc1ccnc3cc(Cl)ccc13)C2=O`, the values for the half-maximal inhibitory concentration (IC50) in the series on Vero and in the series with Plasmodium falciparum [2] were over 253000 nM and 424 nM, respectively. In series [1], the selectivity ratio came to 601.

Take `O=C(NNC(=O)c1ccc2c(c1)C(=O)N(CCCNc1ccnc3cc(Cl)ccc13)C2=O)c1ccncc1`: the selectivity ratio in series [1] worked out at 289. For the same compound, the IC50 with Plasmodium falciparum [2] was 412 nM.

With `O=C(NNC(=O)c1ccc2c(c1)C(=O)N(CCNc1ccnc3cc(Cl)ccc13)C2=O)c1ccncc1`, the concentration for half-maximal inhibition (IC50) in the series with Vero is over 194000 nM; in the series with Plasmodium falciparum [2], 1400 nM. Further, the selectivity ratio in series [1] is 138.

For the compound `O=C(NCCCNc1ccnc2cc(Cl)ccc12)c1ccc2c(c1)C(=O)N(NC(=O)c1ccncc1)C2=O`, the selectivity ratio in series [1] is 366. This compound registered an IC50 with Plasmodium falciparum [2] of 439 nM.

In the case of `O=C(O)c1ccc2c(c1)C(=O)N(CCCCCCCCNc1ccnc3cc(Cl)ccc13)C2=O`, the IC50 in the series on Vero was over 208000 nM; in the series with Plasmodium falciparum [2] it was 43.2 nM. The selectivity ratio in series [1] stood at 4820.

Take `O=C(CN1C(=O)c2ccccc2C1=O)NNC(=O)c1ccncc1`: the IC50 in the series with Vero was over 308000 nM; with Plasmodium falciparum [2] it was over 10000 nM. Also, the selectivity ratio in series [1] came to 30.8.

In the case of `O=C(NCCCCCCNc1ccnc2cc(Cl)ccc12)c1ccc2c(c1)C(=O)N(NC(=O)c1ccncc1)C2=O`, the log K in the series on Heme [5] is 6.39; in the series on Heme [6] it was 6.66. Also, the selectivity ratio in series [1] came out at 2900. The concentration for half-maximal inhibition (IC50) in the series on Plasmodium falciparum [2] amounted to 11.5 nM.

`O=C(NN1C(=O)c2ccc(N3CCN(c4ccnc5cc(Cl)ccc45)CC3)cc2C1=O)c1ccncc1`: the IC50 in the series on Vero is over 438000 nM; in the series on Plasmodium falciparum [2], 1300 nM. In addition, in series [1], the selectivity ratio was determined as 338.

Consider `O=C(NN1C(=O)c2ccc(C(=O)OCCNc3ccnc4cc(Cl)ccc34)cc2C1=O)c1ccncc1`, for which the figures for the IC50 in the series with Vero and with Plasmodium falciparum [2] were over 194000 nM and 812 nM, respectively. Further, the selectivity ratio in series [1] was 239.

Consider `O=C(NNC(=O)c1ccc(N2C(=O)c3ccccc3C2=O)cc1)c1ccncc1`, for which the IC50 was over 259000 nM in the series with Vero and over 10000 nM in the series with Plasmodium falciparum [2]. For the same compound, in series [1], the selectivity ratio is 25.8.

As for `O=C(O)c1ccc2c(c1)C(=O)N(CCCNc1ccnc3cc(Cl)ccc13)C2=O`, the selectivity ratio in series [1] worked out at 487. In the series on Plasmodium falciparum [2], the IC50 came out at 496 nM.

For the compound `COc1ccc(/C=N/NC(=O)c2ccncc2)cc1O`, the IC50 in the series on Plasmodium falciparum [4] worked out at 40.2 nM.
